≈ marks a conversion by molar mass, not a printed value. Counter-ions that a name gives are not always drawn. Like-named read-outs stand apart in the source and are kept apart here.
Tests used:
[1] = test system: heart beat rate in the ventricle of mice placed in chloroform gas; assay: Anti-arrhythmic effect, Block's method (chloroform-induced, ventricular heart beat rate by electrocardiogram); format: in vivo, mice (ICR strain); conditions: Mus musculus, ip, read-out: ED50 % (effective = heart beat rate in the ventricle reduced to less than 400 beats/minute)
Method: Test procedures: (Block's method)
Onto a 2 liter desiccator were placed 150 ml of chloroform and this was stirred with a magnetic stirrer while being heating by an incandescent lamp. When the desiccator was saturated with chloroform gas, mice (ICR strain, body weight between 20 and 25 g) were placed therein for 2 minutes and then the chest was opened. Silver dipolar electrodes were contacted with the ventricles and electrocardiograms were taken for 1 minute. Within 10-20 minutes, the test compound was administered intraperitoneally in a carboxymethyl-cellulose solution as vehicle.

[2] = test system: arrhythmias induced by ischemic cardiac dysfunction caused by ligation of the coronary arteries of a perfusing heart; assay: Anti-arrhythmic effect: protection against arrhythmias induced by ischemia (coronary artery ligation and re-perfusion) of a perfusing heart, method of Opie et al; set-up: species or system male rats of Sprague-Dawley strain; conditions: read-out: ED70 (concentration required for 70% suppression of the arrhythmias during ligation and after re-perfusion)
Method: The test was performed according to the method of L. H. Opie et al [Cardiovascular Research, 12, 212 (1978)] using male rats of Sprague-Dawley strain weighing between 230 and 330 g. The antiarrhythmic effect was estimated by the ability of the test compound administered intravascularly to protect against the arrhythmias induced by ischemic cardiac dysfunction caused by ligation of the coronary arteries of a perfusing heart.
The test compounds were dissolved in dimethyl sulfoxide, and the required amount of injectible solution was prepared by mixing this with Krebs-Henseleit solution. The degree of protecting effect is reported as the concentration (ED70) required for 70% suppression of the arrhythmias during ligation and after re-perfusion.

[3] = test system: male mice of the DDY strain; assay: Diuretic effect: urine volume and sodium ion concentration by the filter paper method (Mineshita et al); format: in vivo; conditions: 100 mg/kg p.o.
Method: The diuretic test was performed on groups of 5 male mice of the DDY strain, each weighing between 26 and 30 g. The test solutions were prepared by dissolving the test compounds in physiological saline containing 0.3% w/v carboxymethylcellulose and were administered orally to the animals. The urine volume and sodium ion concentration were estimated by the filter paper method [Mineshita et al: Pharmacometrics, 4, 33 (1970)]. In Table 13, the increase of the urine volume and sodium ion concentration are shown as a percentage of the values of a control group to which no active compound was administered.

[4] = test system: rats with ischemic brains; assay: Improvement of brain function: time until recovery of the righting reflex in rats with ischemic brains; format: in vivo, male rats of the Wistar strain
Method: A test for recovery of brain function was performed using rats with ischemic brains. The bilaterial carotid arteries of male rats of the Wistar strain were ligated under anesthesia with thiopental (50 mg/kg, intraperitoneally) and the test compounds and a 0.5% w/v carboxymethylcellulose solution (vehicle) were intraperitoneally administered at the same time. The time until recovery of the righting relex was measured to give an index of the brain function. […] The known compound, Pentoxifylline, was tested in the same way, for comparison.

[5] = rat perfusing heart, test compound administered intravascularly

Row | Structure (SMILES) | ED50 [1] | EC70 [2, 5] | also measured
1 | CC[C@@]12CCC[C@H]3[C@H](N)Cc4c(n(c5ccc(O)cc45)C(=O)C1)[C@H]32 (relative stereo) [Compound No. 197, 4β-Amino-12aβ-ethyl-7-hydroxy-2,3,3aβ,4α,5,12,12aβ,12bβ-octahydrobenzo[d,e]indolo[3,2,1-i,j]quinolin-11(1H)-one hemihydrate] | 22.5 mg/kg | – | –
2 | N[C@@H]1Cc2c3n(c4ccccc24)C(=O)C[C@H]2CCC[C@@H]1[C@@H]32 (relative stereo) [Compound No. 106, 4β-amino-2,3,3aβ,4α,5,12,12aβ,12bβ-octahydrobenzo[d,e]indolo[3,2,1-i,j]quinolin-11(1H)-one maleate] | – | 1 µg/mL | –
3 | CN(C)[C@@H]1Cc2c3n(c4ccccc24)C(=O)C[C@H]2CC[C@@H]1[C@@H]32 (relative stereo) [Compound No. 65, 1,2,2aβ,3α,4,11,11aβ,11bβ-Octahydro-3β-dimethylaminocyclopenta[d,e]indolo[3,2,1-i,j]quinolin-10-one maleate] | – | 0.3 µg/mL | –
4 | N[C@@H]1Cc2c3n(c4ccc(O)cc24)C(=O)C[C@@]2(c4ccccc4)CCC[C@@H]1[C@@H]32 (relative stereo) [Compound No. 162] | 12 mg/kg | – | –
5 | O=C(O)[C@@H]1C=C2c3ccccc3N3C(=O)C[C@H]4CC[C@@H]1[C@H]4[C@H]23 (relative stereo) [Compound No. 14, 1,2,2aβ,3α,11,11aβ,11bβ,11cα-Octahydro-10-oxo-10H-cyclopenta[d,e]indolo[3,2,1-i,j]quinoline-3α-carboxylic acid] | – | – | Urine Volume (increase as a percentage of the values of a control group) [3]: 231%; δNa^+ (increase of sodium ion concentration as a percentage of the values of a control group) [3]: 245%
6 | O=C(O)[C@@H]1C=C2c3cc(Br)ccc3N3C(=O)C[C@H]4CC[C@@H]1[C@H]4[C@H]23 (relative stereo) [Compound No. 18] | – | – | Urine Volume (increase as a percentage of the values of a control group) [3]: 86%; δNa^+ (increase of sodium ion concentration as a percentage of the values of a control group) [3]: 168%; Ratio to Control (time until recovery of the righting reflex) ([4]; 10 mg/kg i.p.): 0.84; Ratio to Control (time until recovery of the righting reflex) ([4]; 30 mg/kg i.p.): 0.68
7 | COC(=O)[C@@H]1Cc2c3n(c4ccccc24)C(=O)C[C@H]2CC[C@@H]1[C@@H]32 (relative stereo) [Compound No. 35, Methyl 1,2,2aβ,3α,4,11,11aβ,11bβ-octahydro-10-oxo-10H-cyclopenta[d,e]indolo[3,2,1-i,j]quinoline-3β-carboxylate] | – | – | EC70 ([2]; Rattus norvegicus): 4.2 µg/mL (≈ 13.6 µM)
8 | CC[C@]12CCC[C@@H]3[C@H]1c1c(c4cc(O)ccc4n1C(=O)C2)C[C@H]3C(=O)NNCCN1CCCC1 (relative stereo) [Compound No. 146, 7-Hydroxy-12aβ-ethyl-4β-{3-[2-(1-pyrrolidinyl)ethyl]carbazoyl}-2,3,3aβ,4α,5,12,12aβ,12bβ-octahydrobenzo[d,e]indolo[3,2,1-i,j]quinolin-11(1H)-one hemihydrate] | 22.5 mg/kg | – | –
9 | CCC[C@@]12CCC[C@H]3[C@H](N)Cc4c(n(c5ccccc45)C(=O)C1)[C@H]32 (relative stereo) [Compound No. 96] | 3.6 mg/kg | – | –
10 | CCN(CC)CC(=O)Nc1c(C)cccc1C [Lidocaine, reference compound] | – | 5 µg/mL (≈ 21.3 µM) | –
11 | CC(=O)CCCCn1c(=O)c2c(ncn2C)n(C)c1=O [Pentoxifylline, reference compound] | – | – | Ratio to Control (time until recovery of the righting reflex) ([4]; 30 mg/kg i.p.): 0.82
12 | N[C@@H]1Cc2c3n(c4ccccc24)C(=O)C[C@H]2CCCC[C@@H]1[C@@H]32 (relative stereo) [Compound No. 228] | – | 0.9 µg/mL (≈ 3.06 µM) | –
13 | CC(C)N(CCC(C(N)=O)(c1ccccc1)c1ccccn1)C(C)C (centres unmarked) [Disopyramide, reference compound] | – | 10 µg/mL (≈ 29.5 µM) | –
14 | CC[C@@]12CCC[C@H]3[C@H](N)Cc4c(n(c5ccccc45)C(=O)C1)[C@H]32 (relative stereo) [Compound No. 110] | 14 mg/kg | 0.16 µg/mL (≈ 0.519 µM) | –
15 | CC[C@@]12CC[C@H]3[C@H](N)Cc4c(n(c5ccccc45)C(=O)C1)[C@H]32 (relative stereo) [Compound No. 59] | – | 0.23 µg/mL (≈ 0.781 µM) | –
16 | C[C@@]12C3=C[C@@H](N)[C@@H]4CC[C@H](CC(=O)N1c1ccccc13)[C@@H]42 (relative stereo) [Compound No. 26, 3β-Amino-1,2,2aβ,3α,11,11aβ,11bβ,11cα-octahydro-11cα-methylcyclopenta[d,e]indolo[3,2,1-i,j]quinolin-10-one hydrochloride] | – | 0.9 µg/mL | –
17 | CCC[C@@]12CCC[C@H]3[C@H](N)Cc4c(n(c5ccc(O)cc45)C(=O)C1)[C@H]32 (relative stereo) [Compound No. 198] | 4.2 mg/kg | – | –
18 | N[C@@H]1Cc2c3n(c4ccccc24)C(=O)C[C@H]2CC[C@@H]1[C@@H]32 (relative stereo) [Compound No. 55, 3β-Amino-1,2,2aβ,3α,4,11,11aβ,11bβ-octahydrocyclopenta[d,e]indolo[3,2,1-i,j]quinolin-10-one maleate] | – | 0.64 µg/mL | –
